Assay results reported in patent US11168134B2, “Methods of treating androgen deprivation therapy resistant prostate cancer” (Fondazione per l'Istituto Oncologico di Ricerca (IOR), priority 2018, dated 2021).

How the values were obtained:
MyC-CaP cells = assay: CXCR2 antagonist treatment of castrated MyC-CaP allograft mice; format: in vivo, mouse
Method: (§1) All mice were maintained under specific pathogen-free conditions in the IRB facility and experiments were performed according to state guidelines and approved by the local ethics committee. Male C57BL/6 or FVB mice 6-8 weeks of age were purchased from Jackson Laboratories (Envigo), and acclimated for at least a week before use. C57BL/6 IL-23p19KO (IL23ko) mice were kindly provided by Prof. Federica Sallusto (IRB, Bellinzona). Pten^pc−/− mice were generated and genotyped as previously described. Female Pten^loxP/loxP mice were crossed with male PB-Cre4 transgenic mice and genotyped for Cre using following primers: primer 1 (5′-[…]-3′) and primer 2 (5′-[…]-3′) for PTEN^loxP/loxP; primer 1 (5′ […] 3′) and primer 2 (5′CAGCCACCAGCTTGCATGA 3′) for Probasin-CRE. Surgical castration was performed under anesthesia with isoflurane. Mice were monitored postoperatively for recovery from anesthesia and checked daily for 2 days postoperatively. Surgical skin clips were removed on postoperative day 5. Mice undergoing treatment were administered control vehicle or therapeutic doses of the appropriate agents. Any mouse suffering distress or greater than 15% weight loss during treatment was euthanized by CO2 asphyxiation. At the completion of study, mice were euthanized by CO2 asphyxiation and tissue was collected for histology, mRNA analysis, protein analysis, and single cell suspensions for flow cytometry. For allograft experiments, 2.5×10^6 TRAMP-C1 cells, 2.5×10^6 TRAMP-C1 IL23RKO, or 2×10^6 MyC-CaP cells were injected subcutaneously into the flank of male respectively C57BL/6 or FVB mice. When tumors were approximately 100 mm^3, mice were randomized to the treatment groups. Tumor growth was monitored daily by measuring the tumor size with caliper. The tumor volume was estimated by calculating R1*R2*R3*4/3π, where R1 and R2 are the longitudinal and lateral radii, and R3 is the thickness of tumor protruding from the surface of normal skin. Animals were sacrificed when the tumor reached approximately 600 mm^3.
(§2) αCXCR2 (AZD5069; AstraZeneca) was administered with daily intraperitoneal injections at a final concentration of 100 mg/kg on a Monday through Friday schedule. Control animals received vehicle. Enzalutamide (APExBio) was administered daily by oral gavage with a dose of 30 mg/kg/day on a Monday through Friday schedule. Rat anti-IL23 antibody (100 ng per mouse; G23-8; IgG1, kappa; eBioscience) or rat IgG1 isotype control (eBioscience) were administered weekly via intraperitoneal injection.
(§3) Tumors were disaggregated and digested in collagenase D and DNAse for 30 minutes at 37° C. to obtain single-cell suspension. For intracellular cytokine detection cells where stimulated for 5 hours with PMA/ionomycin. After neutralization of unspecific binding with αCD16/CD32 (clone 93), single-cell suspensions were stained with specific mAb (primary antibodies directly conjugated) to assess the phenotype. […] Data were analyzed using FlowJo software (TreeStar, Ashland, Oreg.).
(§4) RNA isolation (TRIzol, Qiagen) and retro-transcription with SuperScriptIII (Invitrogen, 11752-250) were performed according to the manufacturer's instructions. Quantitative PCR (qPCR) reactions (Bio-Rad) were performed using KAPA SYBR FAST qPCR green (KK4605; Applied Biosystems) and the specific primers reported below. […]

TRAMP-C1 cells [1] = assay: In vitro culture of prostate cancer cells under full androgen deprivation (F.A.D.); format: cell-based, mouse
Method: Prostate cancer cell lines were starved in Charcoal Stripped FBS (CS-FBS) medium for 72 h and then cultured with RPMI 1640 containing 10% heat-inactivated FBS (normal medium) or kept in full androgen deprivation medium (RPMI 1640 containing 10% heat-inactivated Charcoal Stripped-FBS plus Enzalutamide 10 μM; F.A.D.). Then, the cells were stimulated with or without condition media obtained from activated BM-derived MDSCs, or recombinant IL23 (100 ng/ml; R&D System), with or without αRORγ (5 μM; SR2211; Calbiochem®). Then, the cells were analyzed for Crystal Violet assay or stained with Annexin V/7AAD or collected for RNA extraction.
RNA isolation (TRIzol, Qiagen) and retro-transcription with SuperScriptIII (Invitrogen, 11752-250) were performed according to the manufacturer's instructions. Quantitative PCR (qPCR) reactions (Bio-Rad) were performed using KAPA SYBR FAST qPCR green (KK4605; Applied Biosystems) and the specific primers reported below. Primer sequences were obtained from PrimerBank (http://pga.mgh.harvard.edu/primerbank/index.html) or BIORAD. Each expression value was normalized by HPRT or GADPH level as reference.

TRAMP-C1 cells [2] = assay: CXCR2 antagonist treatment of castrated TRAMP-C1 allograft mice; format: in vivo, mouse
Method: as §1, §2, §3, §4

[3] = system: prostate tumors of CTX Pten^pc−/− mice; assay: CXCR2 antagonist treatment of surgically castrated Pten^pc−/− mice; format: in vivo, mouse
Method: All mice were maintained under specific pathogen-free conditions in the IRB facility and experiments were performed according to state guidelines and approved by the local ethics committee. Male C57BL/6 or FVB mice 6-8 weeks of age were purchased from Jackson Laboratories (Envigo), and acclimated for at least a week before use. C57BL/6 IL-23p19KO (IL23ko) mice were kindly provided by Prof. Federica Sallusto (IRB, Bellinzona). Pten^pc−/− mice were generated and genotyped as previously described. […] Mice were monitored postoperatively for recovery from anesthesia and checked daily for 2 days postoperatively. […] Tumor growth was monitored daily by measuring the tumor size with caliper. […]
Tumors were disaggregated and digested in collagenase D and DNAse for 30 minutes at 37° C. to obtain single-cell suspension. […] Data were analyzed using FlowJo software (TreeStar, Ashland, Oreg.).
as §4

[4] = system: castration resistant prostate tumors of Pten^pc−/− mice; assay: Preclinical trial in castration-resistant Pten^pc−/− mice (αIL23, ENZA, ENZA+αIL23); format: in vivo, mouse; conditions: ENZA 30 mg/kg/day oral alone
Method: All mice were maintained under specific pathogen-free conditions in the IRB facility and experiments were performed according to state guidelines and approved by the local ethics committee. Male C57BL/6 or FVB mice 6-8 weeks of age were purchased from Jackson Laboratories (Envigo), and acclimated for at least a week before use. C57BL/6 IL-23p19KO (IL23ko) mice were kindly provided by Prof. Federica Sallusto (IRB, Bellinzona). Pten^pc−/− mice were generated and genotyped as previously described. Female Pten^loxP/loxP mice were crossed with male PB-Cre4 transgenic mice and genotyped for Cre using following primers: primer 1 (5′-[…]-3′) and primer 2 (5′-[…]-3′) for PTEN^loxP/loxP; primer 1 (5′ […] 3′) and primer 2 (5′CAGCCACCAGCTTGCATGA 3′) for Probasin-CRE. Surgical castration was performed under anesthesia with isoflurane. Mice were monitored postoperatively for recovery from anesthesia and checked daily for 2 days postoperatively. Surgical skin clips were removed on postoperative day 5. […] Tumor growth was monitored daily by measuring the tumor size with caliper. […]
For immunohistochemistry (IHC), tissues were fixed in 10% formalin (ThermoScientific, 5701) and embedded in paraffin in accordance with standard procedures. […] All the quantifications have been done using the public online software ImmunoRatio (153.1.200.58:8080/iimunoratio/). […]

In the case of C[C@@H](Oc1cc(NS(=O)(=O)N2CCC2)nc(SCc2cccc(F)c2F)n1)[C@@H](O)CO [AZD5069], the “tumor infiltration of PMN-MDSCs” value (MyC-CaP cells; castrated FVB mice with s.c. MyC-CaP tumors, AZD5069 100 mg/kg i.p., flow cytometry (FIG. 7e)) is reported as “strongly reduced the tumor infiltration of PMN-MDSCs”, the “emergence of CRPC” value (MyC-CaP cells; castrated MyC-CaP allograft mice) is reported as “delayed the emergence of CRPC” and the tumor size (MyC-CaP cells; castrated MyC-CaP allograft mice (FIG. 7g)) is reported as “decreased tumor size”. The survival (MyC-CaP cells; castrated MyC-CaP allograft mice, Kaplan-Meier (FIG. 7h)) was “longer survival”, the “level of AR target genes in tumors” value (MyC-CaP cells; castrated MyC-CaP allograft mice, qRT-PCR (FIG. 7f)) was “decreased” and the “AR activity (AR target genes, qRT-PCR)” value (TRAMP-C1 cells [1]; TRAMP-C1 cells in F.A.D., 24 h of treatment with CXCR2 antagonist (FIG. 6i)) was “did not directly affect”. For the same molecule, the cell proliferation (TRAMP-C1 cells [1]; TRAMP-C1 cells in F.A.D., 72 h of treatment with CXCR2 antagonist (FIG. 6h)) was “did not directly affect”, the “tumor infiltration of PMN-MDSCs” value (TRAMP-C1 cells [2]; castrated C57BL/6 mice with s.c. TRAMP-C1 tumors, AZD5069 100 mg/kg i.p., flow cytometry (FIG. 7a)) was “strongly reduced the tumor infiltration of PMN-MDSCs” and the “emergence of CRPC” value (TRAMP-C1 cells [2]; castrated TRAMP-C1 allograft mice) was “delayed the emergence of CRPC”. For the same molecule, the tumor size (TRAMP-C1 cells [2]; castrated TRAMP-C1 allograft mice (FIG. 7c)) was “decreased tumor size”, the survival (TRAMP-C1 cells [2]; castrated TRAMP-C1 allograft mice, Kaplan-Meier (FIG. 7d)) was “longer survival” and the “level of AR target genes in tumors” value (TRAMP-C1 cells [2]; castrated TRAMP-C1 allograft mice, qRT-PCR (FIG. 7b)) was “decreased”. For the same molecule, the “tumor infiltration of PMN-MDSCs” value ([3]; AZD5069 100 mg/kg i.p. daily Monday-Friday, flow cytometry (FIG. 6f)) was “strongly reduced the tumor infiltration of PMN-MDSCs” and the “progression to CRPC” value ([3]; judged by tumor volume and levels of AR target genes, untreated mice developed CRPCs four months after castration) was “did not progress to CRPCs”.

With CNC(=O)c1ccc(N2C(=S)N(c3ccc(C#N)c(C(F)(F)F)c3)C(=O)C2(C)C)cc1F [ENZA, Enzalutamide] the “treatment effect (glands, tumor volume, proliferation)” value [4] was “ineffective”.

B1: recombinant IL23: recombinant IL23 (100 ng/ml; R&D System) (protein, UniProt Q9NPF7 20-189; P29460 23-328, looked up)
Interleukin-23 subunit alpha: RAVPGGSSPAWTQCQQLSQKLCTLAWSAHPLVGHMDLREEGDEETTNDVPHIQCGDGCDPQGLRDNSQFCLQRIHQGLIFYEKLLGSDIFTGEPSLLPDSPVGQLHASLLGLSQLLQPEGHHWETQQIPSLSPSQPWQRLLLRFKILRSLQAFVAVAARVFAHGAATLSP
Interleukin-12 subunit beta: IWELKKDVYVVELDWYPDAPGEMVVLTCDTPEEDGITWTLDQSSEVLGSGKTLTIQVKEFGDAGQYTCHKGGEVLSHSLLLLHKKEDGIWSTDILKDQKEPKNKTFLRCEAKNYSGRFTCWWLTTISTDLTFSVKSSRGSSDPQGVTCGAATLSAERVRGDNKEYEYSVECQEDSACPAAEESLPIEVMVDAVHKLKYENYTSSFFIRDIIKPDPPKNLQLKPLKNSRQVEVSWEYPDTWSTPHSYFSLTFCVQVQGKSKREKKDRVFTDKTSATVICRKNASISVRAQDRYYSSSWSEWASVPCS
B1 was tested, and the “cell survival (AnnexinV/7AAD)” value (TRAMP-C1 cells [1]; TRAMP-C1 cells kept in F.A.D., recombinant IL23 100 ng/ml (FIG. 2f-g)) was “promoted”, the “transcription of androgen receptor target genes” value (TRAMP-C1 cells [1]; TRAMP-C1 cells kept in F.A.D., recombinant IL23 100 ng/ml, 24 h, qRT-PCR (FIG. 2h)) was “increased transcription of androgen receptor target genes” and the cell proliferation (TRAMP-C1 cells [1]; TRAMP-C1 cells kept in F.A.D., recombinant IL23 100 ng/ml, 72 h (FIG. 2e)) was “promoted proliferation”.
